According to patent US20250270617A1, “Compound - diagnostic marker for kidney cancer, method for detecting enzymatic activity, method for diagnosis of kidney cancer, kit comprising the compound, uses of the compound and method for the treatment of kidney cancer” (URTESTE S.A., priority 2022, published 2025):
“And” between values parts separate entries of the source, which are not always exact repeats. Identical values can stand only once. Numbered stars: 1 amine (or outer) side, 2 acyl side, 3 side chain; on linkers, the order of the positions; unused ones are H or OH. Square brackets hold non-standard residues; d marks the D form. Ends that are not written are not given here. Benzoyl(5-NH,2-NO2) = O=C(c1cc(N[*:1])ccc1[N+](=O)[O-])[*:2]; 2Abz = Nc1ccccc1C(=O)O

Tests used:
Format in all cases: biochemical, human
[1] = system: proteolytic enzymes specific/characteristic of kidney cancer in urine; experiment: Absorbance measurement of substrate hydrolysis in individual urine samples (kidney cancer and healthy subjects); conditions: for Results of absorbance analysis (rate of hydrolysis of the substrate): 405 nm, 37° C., 60 minutes, pH 8.0, triplicate
Experimental: (§1) The activity of the novel compounds according to the invention was studied in a group of 20 subjects diagnosed with kidney cancer using the representative compound according to the invention. […] The remaining compounds according to the invention are characterized by the analogous mechanism of action. For this purpose, the representative compound according to the invention, ABZ^1-Leu^2-Pro^3-Gly^4-Thr^5-ANB^6—NH2, was dissolved in dimethyl sulfoxide (at a concentration of 0.5 mg/mL) and then 50 μL of the solution was mixed with 120 μL of a buffer (200 mM Tris-HCl, pH 8.0) and 80 μL of urine from a subject suffering from kidney cancer. The measurement was performed on a 96-well plate designed for measuring absorbance and each sample was analysed in triplicate at the temperature of 37° C. The duration of the measurement was 60 minutes. During the measurement, the wavelength characteristic for the chromophore (ANB-NH2) being released was monitored at the wavelength 405 nm (range 380-430 nm).
The observed magnitude of increase in absorbance in time is different for each of the examined samples.
Such a result may be due to the difference in the activity as well as the amount of enzymes responsible for the enzymatic cleavage (proteolysis). […] The result indicates the absence of proteolytic enzymes specific/characteristic of kidney cancer.

[2] = system: proteolytic enzymes in urine from patients with different cancers; experiment: Selectivity of substrate cleavage in urine samples by cancer type; conditions: testicular, prostate, pancreatic, biliary duct, lung, ovary, rectum cancer; mixture of 20 samples each; FIG. 3
Excerpt: Arabic numerals indicate the numbers of given cancer types. The samples tested for each type of cancer were derived from 20 different patients for each of the tested cancers. The results are mean values for given cancer types.
as §1
Furthermore, the dependence of the cleavage selectivity of the substrate, i.e. the compound according to the invention, on the cancer type being examined, was studied. […]

[3] = system: proteolytic enzymes in urine from a person diagnosed with kidney cancer; experiment: RP HPLC analysis of substrate cleavage in urine from a person with kidney cancer; conditions: randomly selected urine from a person diagnosed with kidney cancer; FIG. 1
[4] = system: proteolytic enzymes in urine; experiment: Dependence of substrate hydrolysis on reaction pH; conditions: FIG. 4
Experimental: Furthermore, measurements concerning the dependence of the proteolytic activity of the representative compound according to the invention on the reaction pH were performed.

[5] = system: proteolytic enzymes specific/characteristic of kidney cancer in urine; experiment: Absorbance measurement of substrate hydrolysis in individual urine samples (kidney cancer and healthy subjects)

Question: Which results are given for “ABZ-Leu-Pro-Gly-Thr-ANB-NH2 ([2Abz]LPGT-{Benzoyl(5-NH,2-NO2)-NH2}) [chromogenic/fluorogenic peptide; ABZ is 2-aminobenzoic acid, ANB-NH2 is amide of 5-amino-2-nitrobenzoic acid]”?
Answer: Cleavage of the substrate in urine samples from persons suffering from kidney cancer ([1]; all samples N1-N20): underwent cleavage; Efficiency of substrate cleavage in samples N3 and N6 ([1]; compared with samples N5 or N20, FIG. 2, Table 1): less efficiently; Results of absorbance analysis (rate of hydrolysis of the substrate) ([1]; urine sample 21, healthy subject): 0.000000; Results of absorbance analysis (rate of hydrolysis of the substrate) ([1]; urine sample 22, healthy subject): 0.000000; Results of absorbance analysis (rate of hydrolysis of the substrate) ([1]; urine sample 23, healthy subject): 0.000000; Results of absorbance analysis (rate of hydrolysis of the substrate) ([1]; urine sample 24, healthy subject): 0.000000; Results of absorbance analysis (rate of hydrolysis of the substrate) ([1]; urine sample 25, healthy subject): 0.000000; Results of absorbance analysis (rate of hydrolysis of the substrate) ([1]; urine sample 26, healthy subject): 0.000000; Results of absorbance analysis (rate of hydrolysis of the substrate) ([1]; urine sample 27, healthy subject): 0.000000; Results of absorbance analysis (rate of hydrolysis of the substrate) ([1]; urine sample 28, healthy subject): 0.000000; Results of absorbance analysis (rate of hydrolysis of the substrate) ([1]; urine sample 29, healthy subject): 0.000000; Results of absorbance analysis (rate of hydrolysis of the substrate) ([1]; urine sample 30, healthy subject): 0.000000; Results of absorbance analysis (rate of hydrolysis of the substrate) ([1]; urine sample 31, healthy subject): 0.000000; Results of absorbance analysis (rate of hydrolysis of the substrate) ([1]; urine sample 32, healthy subject): 0.000000; Results of absorbance analysis (rate of hydrolysis of the substrate) ([1]; urine sample 33, healthy subject): 0.000000; Results of absorbance analysis (rate of hydrolysis of the substrate) ([1]; urine sample 34, healthy subject): 0.000000; Results of absorbance analysis (rate of hydrolysis of the substrate) ([1]; urine sample 36, healthy subject): 0.000000; Results of absorbance analysis (rate of hydrolysis of the substrate) ([1]; urine sample 37, healthy subject): 0.000000; Results of absorbance analysis (rate of hydrolysis of the substrate) ([1]; urine sample 38, healthy subject): 0.000000; Results of absorbance analysis (rate of hydrolysis of the substrate) ([1]; urine sample 39, healthy subject): 0.000000; Results of absorbance analysis (rate of hydrolysis of the substrate) ([1]; urine sample 40, healthy subject): 0.000000; Results of absorbance analysis (rate of hydrolysis of the substrate) ([1]; urine sample N1, subject with kidney cancer): 0.027 and 0.019 and 0.023; Results of absorbance analysis (rate of hydrolysis of the substrate) ([1]; urine sample N2, subject with kidney cancer): 0.021 and 0.014 and 0.019; Results of absorbance analysis (rate of hydrolysis of the substrate) ([1]; urine sample N4, subject with kidney cancer): 0.032 and 0.029 and 0.03; Results of absorbance analysis (rate of hydrolysis of the substrate) ([1]; urine sample N5, subject with kidney cancer): 0.034 and 0.032 and 0.029; Results of absorbance analysis (rate of hydrolysis of the substrate) ([1]; urine sample N6, subject with kidney cancer): 0.0033 and 0.0027 and 0.003; Results of absorbance analysis (rate of hydrolysis of the substrate) ([1]; urine sample N7, subject with kidney cancer): 0.02 and 0.021 and 0.018; Results of absorbance analysis (rate of hydrolysis of the substrate) ([1]; urine sample N9, subject with kidney cancer): 0.031 and 0.03 and 0.035; Results of absorbance analysis (rate of hydrolysis of the substrate) ([1]; urine sample N10, subject with kidney cancer): 0.0026 and 0.0037 and 0.0031; Results of absorbance analysis (rate of hydrolysis of the substrate) ([1]; urine sample N11, subject with kidney cancer): 0.012 and 0.01 and 0.015; Results of absorbance analysis (rate of hydrolysis of the substrate) ([1]; urine sample N12, subject with kidney cancer): 0.0098 and 0.0111 and 0.012; Results of absorbance analysis (rate of hydrolysis of the substrate) ([1]; urine sample N13, subject with kidney cancer): 0.004 and 0.0051 and 0.0045; Results of absorbance analysis (rate of hydrolysis of the substrate) ([1]; urine sample N14, subject with kidney cancer): 0.0036 and 0.0033 and 0.0032; Results of absorbance analysis (rate of hydrolysis of the substrate) ([1]; urine sample N15, subject with kidney cancer): 0.0043 and 0.0037 and 0.004; Results of absorbance analysis (rate of hydrolysis of the substrate) ([1]; urine sample N16, subject with kidney cancer): 0.0039 and 0.0037 and 0.0035; Results of absorbance analysis (rate of hydrolysis of the substrate) ([1]; urine sample N17, subject with kidney cancer): 0.013 and 0.0135 and 0.0136; Results of absorbance analysis (rate of hydrolysis of the substrate) ([1]; urine sample N18, subject with kidney cancer): 0.004 and 0.0032 and 0.0038; Results of absorbance analysis (rate of hydrolysis of the substrate) ([1]; urine sample N19, subject with kidney cancer): 0.0038 and 0.004 and 0.0037; Results of absorbance analysis (rate of hydrolysis of the substrate) ([1]; urine sample N20, subject with kidney cancer): 0.031 and 0.026; Cleavage of the substrate in samples from patients with other cancers [2]: is not subject to cleavage; Cleavage products by RP HPLC analysis [3]: cleaves into the peptide fragment ABZ-Leu-Pro-Gly-Thr-OH and the chromophore group of the compound (ANB-NH2); Dependence of the hydrolysis level of the substrate on pH [4]: maximum activity at alkaline pH; Increase in absorbance / hydrolysis in urine samples from healthy persons ([5]; samples 21 to 40, without a cancer diagnosis): does not lead to an increase in absorbance; Results of absorbance analysis (rate of hydrolysis of the substrate) ([5]; urine sample 35, healthy subject, 405 nm, 37° C., 60 minutes, pH 8.0, triplicate): 0.000000
